{
  "source": "patent US10829473B2",
  "about": "“Modulators of the cystic fibrosis transmembrane conductance regulator protein and methods of use” (AbbVie Overseas S.Á.R.L., priority 2017, dated 2020)",
  "target": "T1, F508delCFTR (Homo sapiens, UniProt P13569, DEL508-508)",
  "T1 construct": "expressed in transfected cells; host or cells: CFBE41o- human lung derived epithelial cells (CFBE41o-F508delCFTR-HRP), doxycycline-inducible",
  "T1 sequence (P13569 with tags, fused parts or gaps DEL508-508)": "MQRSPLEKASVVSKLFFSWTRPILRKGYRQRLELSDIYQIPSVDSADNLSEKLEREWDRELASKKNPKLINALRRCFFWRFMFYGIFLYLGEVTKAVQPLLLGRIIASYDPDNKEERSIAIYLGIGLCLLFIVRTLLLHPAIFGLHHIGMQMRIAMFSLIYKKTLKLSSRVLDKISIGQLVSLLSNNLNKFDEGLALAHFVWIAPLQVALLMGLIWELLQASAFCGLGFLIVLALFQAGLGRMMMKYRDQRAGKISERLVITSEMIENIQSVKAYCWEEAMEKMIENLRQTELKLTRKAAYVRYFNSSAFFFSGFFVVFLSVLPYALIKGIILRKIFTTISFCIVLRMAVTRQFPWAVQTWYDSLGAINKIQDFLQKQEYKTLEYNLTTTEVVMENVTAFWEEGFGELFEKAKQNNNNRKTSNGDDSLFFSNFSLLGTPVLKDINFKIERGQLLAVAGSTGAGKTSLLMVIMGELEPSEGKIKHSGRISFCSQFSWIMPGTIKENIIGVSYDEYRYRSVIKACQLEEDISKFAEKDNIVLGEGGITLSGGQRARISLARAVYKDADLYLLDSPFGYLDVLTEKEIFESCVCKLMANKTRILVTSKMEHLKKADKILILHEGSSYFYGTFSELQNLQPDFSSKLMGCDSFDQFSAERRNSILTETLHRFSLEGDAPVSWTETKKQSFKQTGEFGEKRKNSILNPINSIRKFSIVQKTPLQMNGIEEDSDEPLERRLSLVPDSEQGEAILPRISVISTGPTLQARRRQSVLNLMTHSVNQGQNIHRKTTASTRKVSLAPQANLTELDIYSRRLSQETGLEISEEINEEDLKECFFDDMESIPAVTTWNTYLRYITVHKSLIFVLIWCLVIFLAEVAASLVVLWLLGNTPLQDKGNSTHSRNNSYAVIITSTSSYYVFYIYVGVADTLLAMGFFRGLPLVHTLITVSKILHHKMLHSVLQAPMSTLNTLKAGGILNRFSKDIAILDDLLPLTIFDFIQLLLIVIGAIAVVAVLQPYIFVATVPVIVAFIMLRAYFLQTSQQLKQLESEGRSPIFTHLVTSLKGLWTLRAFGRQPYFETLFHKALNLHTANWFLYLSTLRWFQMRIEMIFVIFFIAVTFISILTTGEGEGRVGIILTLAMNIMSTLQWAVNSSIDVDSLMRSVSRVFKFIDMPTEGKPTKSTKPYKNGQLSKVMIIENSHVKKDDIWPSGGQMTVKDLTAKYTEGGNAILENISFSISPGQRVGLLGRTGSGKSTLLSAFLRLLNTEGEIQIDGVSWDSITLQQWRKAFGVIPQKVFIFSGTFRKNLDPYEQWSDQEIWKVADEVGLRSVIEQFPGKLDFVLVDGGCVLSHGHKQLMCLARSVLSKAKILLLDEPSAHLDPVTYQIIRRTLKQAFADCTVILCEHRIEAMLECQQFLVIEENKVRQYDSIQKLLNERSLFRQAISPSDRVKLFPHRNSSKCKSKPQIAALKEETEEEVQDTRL",
  "experiment": "Cell Surface Expression-Horse Radish Peroxidase (CSE-HRP) Assay",
  "assay_type": "cell-based",
  "conditions": "for Maximum % activity (with co-corrector) / Emax: maximum at any tested concentration; for Emax: read-out: Maximum % activity (without co-corrector)",
  "description": "A cellular assay for measuring the F508delCFTR cell surface expression after correction with test compounds either without or with a co-corrector (2 μM of 3-[(2R,4R)-4-({[1-(2,2-difluoro-1,3-benzodioxol-5-yl)cyclopropyl]carbonyl}amino)-7-methoxy-3,4-dihydro-2H-chromen-2-yl]benzoic acid), was developed in human lung derived epithelial cell line (CFBE4lo−) (Veit G et al, (2012) Mol Biol Cell. 23(21): 4188-4202). The development was achieved by expressing the F508delCFTR mutation along with a horseradish peroxidase (HRP) in the fourth exofacial loop, and then measuring the HRP activity using luminescence readout from these cells, CFBE410-F508delCFTR-HRP, that were incubated overnight with the test corrector compounds, either without or with the co-corrector. For this primary assay, the CFBE410-F508delCFTR-HRP cells were plated in 384-well plates (Greiner Bio-one; Cat 781080) at 4,000 cells/well along with 0.5 μg/mL doxycycline to induce the F508delCFTR-HRP expression and further incubated at 37° C., 5% CO2 for 68-72 hours. The test compounds were then added either without or with a co-corrector at the required concentrations and further incubated for 18-24 hours at 33° C. The highest concentration tested was 20 μM or 30 μM (GI-1 to GIII-36) with an 8-point concentration response curve using a 3-fold dilution in both the test compound without or with the co-corrector. Three replicate plates were run to determine one EC50. All plates contained negative controls (dimethyl sulfoxide, DMSO) and positive control (2 μM or 3 μM (GI-1 to GIII-36) of 3-[(2R,4R)-4-({[1-(2,2-difluoro-1,3-benzodioxol-5-yl)cyclopropyl]carbonyl}amino)-7-methoxy-3,4-dihydro-2H-chromen-2-yl]benzoic acid) as well as on-plate concentration response of the positive control. Post incubation, the plates were washed 5× times with Dulbecco's phosphate buffered saline (DPBS), followed by the addition of the HRP substrate, luminol (50 4), and measuring the HRP activity using luminescence readout on EnVision® Multilabel Plate Reader (Perkin Elmer; product number 2104-0010). The raw counts from the experiment were analyzed using Accelrys® Assay Explorer v3.3.\nZ′ greater than 0.5 was used as passing quality control criteria for the plates.\nThe Z′ is defined as: 1−[3*SDPositve Control+3*SDNegative Control/Absolute(MeanPositive Control−MeanNegative Control)] wherein “SD” is standard deviation.\nThe % activity measured at each of the 8 test concentrations of the test compound added either without or with a co-corrector (2 μM or 3 μM (GI-1 to GIII-36) of 3-[(2R,4R)-4-({[1-(2,2-difluoro-1,3-benzodioxol-5-yl)cyclopropyl]carbonyl}amino)-7-methoxy-3,4-dihydro-2H-chromen-2-yl]benzoic acid) was normalized to the on-plate positive control using the following formulae: % activity (Test compound without co-corrector)=[(test compound without co-corrector response DMSO response)/(positive control response DMSO response)]*100 % activity (Test compound with co-corrector)=[(test compound with co-corrector response DMSO response)/(positive control response DMSO response)]*100\nThe maximum % activity achieved for the test compound either without or with a co-corrector at any tested concentration is presented in Table 6 along with the respective EC50's calculated using the following general sigmoidal curve with variable Hill slope equation (described as Model 42 in the Accelrys® Assay Explorer v3.3 software): y=(a−d)/(1+(x/c)b)+d\nGeneral sigmoidal curve with concentration, response, top, bottom, EC50 and Hill slope. This model describes a sigmoidal curve with an adjustable baseline, a. The equation can be used to fit curves where response is either increasing or decreasing with respect to the independent variable, “x”.\n“x” is a concentration of drug under test.\n“a” is the maximum response, and “d” is the minimum response\n“c” is the inflection point (EGO for the curve. That is, “y” is halfway between the lower and upper asymptotes when x=c.\n“b” is the slope-factor or Hill coefficient. […]",
  "key": {"[1]": {"conditions": "test compound with co-corrector"}, "[2]": {"conditions": "test compound without co-corrector"}, "[3]": {"conditions": "test compound alone, without co-corrector, read-out: EC50 (without co-corrector)"}, "[4]": {"conditions": "with co-corrector, read-out: EC50 (with co-corrector)"}, "[5]": {"conditions": "test compound with co-corrector, read-out: EC50 (with co-corrector)"}, "[6]": {"conditions": "test compound without co-corrector, read-out: EC50 (without co-corrector)"}},
  "note": "Where two headings read alike, the source gives them in different places. Marks after values point to notes of the source that are not given here.",
  "data": [
    {"smiles": "O=C(NS(=O)(=O)c1cccc2ccccc12)C1(c2ccc(C(F)(F)F)nc2Cl)CC1", "note": "[GIII-21]", "values": [
      {"measurement": "EC50 (with co-corrector)", "setting": "[1]", "result": "++^a"},
      {"measurement": "Maximum % activity (with co-corrector)", "setting": "[1]", "result": "++ (≥150 and <350)"},
      {"measurement": "EC50 (without co-corrector)", "setting": "[2]", "result": "++^a"},
      {"measurement": "Emax", "setting": "[2]", "result": "50 to 150", "unit": "%"}
    ]},
    {"smiles": "Cc1ccc2c(S(=O)(=O)NC(=O)C3(c4cccnc4N4CCCC4)CC3)cccc2n1", "note": "[GII-34, N-(2-methylquinoline-5-sulfonyl)-1-[2-(pyrrolidin-1-yl)pyridin-3-yl]cyclopropane-1-carboxamide]", "values": [
      {"measurement": "EC50 (with co-corrector)", "setting": "[1]", "result": "++^a"},
      {"measurement": "Maximum % activity (with co-corrector)", "setting": "[1]", "result": "++ (≥150 and <350)"},
      {"measurement": "EC50 (without co-corrector)", "setting": "[2]", "result": "++^a"},
      {"measurement": "Emax", "setting": "[2]", "result": "50 to 150", "unit": "%"}
    ]},
    {"smiles": "CCOC(C)(C)c1ccc(OC(F)F)c(C2(C(=O)NS(=O)(=O)c3cccc4ncccc34)CC2)c1", "note": "[II-106]", "values": [
      {"measurement": "EC50", "setting": "[3]", "result": "3 to 10", "unit": "µM"},
      {"measurement": "Maximum % activity (with co-corrector)", "setting": "with co-corrector", "result": "+++ (≥350)"},
      {"measurement": "EC50", "setting": "[4]", "result": "3 to 10", "unit": "µM"},
      {"measurement": "Emax", "setting": "without co-corrector", "result": "> 150", "unit": "%"}
    ]},
    {"smiles": "CC1(C)CC1(C(=O)NS(=O)(=O)c1ccccc1)c1ccccc1", "note": "(stereo not shown) [Example III-61, N-(benzenesulfonyl)-2,2-dimethyl-1-phenylcyclopropane-1-carboxamide]", "values": [
      {"measurement": "EC50", "setting": "[3]", "result": "> 10", "unit": "µM"},
      {"measurement": "Maximum % activity (with co-corrector)", "setting": "with co-corrector", "result": "++ (≥150 and <350)"},
      {"measurement": "EC50", "setting": "[4]", "result": "3 to 10", "unit": "µM"},
      {"measurement": "Emax", "setting": "without co-corrector", "result": "< 50", "unit": "%"}
    ]},
    {"smiles": "COc1ccc(C2(C(=O)NS(=O)(=O)c3cccc4ccccc34)CC2)c(C)n1", "note": "[GII-19, 1-(6-methoxy-2-methylpyridin-3-yl)-N-(naphthalene-1-sulfonyl)cyclopropane-1-carboxamide]", "values": [
      {"measurement": "Maximum % activity (with co-corrector)", "setting": "[1]", "result": "+++ (≥350)"},
      {"measurement": "EC50", "setting": "[5]", "result": "3 to 10", "unit": "µM"},
      {"measurement": "EC50 (without co-corrector)", "setting": "[2]", "result": "++^a"},
      {"measurement": "Emax", "setting": "[2]", "result": "50 to 150", "unit": "%"}
    ]},
    {"smiles": "COc1cc(OC(C)C)c(C2(C(=O)NS(=O)(=O)c3cccc4[nH]ccc34)CC2)cn1", "note": "[GIII-3]", "values": [
      {"measurement": "Maximum % activity (with co-corrector)", "setting": "[1]", "result": "+++ (≥350)"},
      {"measurement": "EC50", "setting": "[5]", "result": "3 to 10", "unit": "µM"},
      {"measurement": "Emax", "setting": "[2]", "result": "> 150", "unit": "%"},
      {"measurement": "EC50", "setting": "[6]", "result": "3 to 10", "unit": "µM"}
    ]},
    {"smiles": "O=C(NS(=O)(=O)c1ccc(Br)s1)C1(c2ccc(Cl)cc2Cl)CC1", "note": "[Example III-63, N-(5-bromothiophene-2-sulfonyl)-1-(2,4-dichlorophenyl)cyclopropane-1-carboxamide]", "values": [
      {"measurement": "EC50", "setting": "[3]", "result": "> 10", "unit": "µM"},
      {"measurement": "Maximum % activity (with co-corrector)", "setting": "with co-corrector", "result": "++ (≥150 and <350)"},
      {"measurement": "EC50", "setting": "[4]", "result": "3 to 10", "unit": "µM"},
      {"measurement": "Emax", "setting": "without co-corrector", "result": "< 50", "unit": "%"}
    ]},
    {"smiles": "COC(=O)c1csc(S(=O)(=O)NC(=O)C2(c3ccc(Cl)cc3Cl)CC2)c1OC", "note": "[Example III-11, methyl 5-{[1-(2,4-dichlorophenyl)cyclopropane-1-carbonyl]sulfamoyl}-4-methoxythiophene-3-carboxylate]", "values": [
      {"measurement": "EC50", "setting": "[3]", "result": "> 10", "unit": "µM"},
      {"measurement": "Maximum % activity (with co-corrector)", "setting": "with co-corrector", "result": "+ (<150)"},
      {"measurement": "EC50", "setting": "[4]", "result": "> 10", "unit": "µM"},
      {"measurement": "Emax", "setting": "without co-corrector", "result": "< 50", "unit": "%"}
    ]},
    {"smiles": "COc1cc(C2(C(=O)NS(=O)(=O)c3cccc4ncccc34)CC2)c(OCC2CC2)cn1", "note": "[Example GI-91, 1-[5-(cyclopropylmethoxy)-2-methoxypyridin-4-yl]-N-(quinoline-5-sulfonyl)cyclopropane-1-carboxamide]", "values": [
      {"measurement": "Maximum % activity (with co-corrector)", "setting": "[1]", "result": "+++ (≥350)"},
      {"measurement": "EC50", "setting": "[5]", "result": "< 3", "unit": "µM"},
      {"measurement": "Emax", "setting": "[2]", "result": "> 150", "unit": "%"},
      {"measurement": "EC50", "setting": "[6]", "result": "3 to 10", "unit": "µM"}
    ]},
    {"smiles": "COc1ccc(C)c(C)c1C1(C(=O)NS(=O)(=O)c2cccc3nc(C)ccc23)CC1", "note": "[II-51]", "values": [
      {"measurement": "EC50", "setting": "[3]", "result": "< 3", "unit": "µM"},
      {"measurement": "Maximum % activity (with co-corrector)", "setting": "with co-corrector", "result": "+++ (≥350)"},
      {"measurement": "EC50", "setting": "[4]", "result": "< 3", "unit": "µM"},
      {"measurement": "Emax", "setting": "without co-corrector", "result": "> 150", "unit": "%"}
    ]},
    {"smiles": "Cc1ccc2c(S(=O)(=O)NC(=O)C3(c4cc(C5CCC5)cnc4OCC4CC4)CC3)cccc2n1", "note": "[Example GI-110, 1-[5-cyclobutyl-2-(cyclopropylmethoxy)pyridin-3-yl]-N-(2-methylquinoline-5-sulfonyl)cyclopropane-1-carboxamide]", "values": [
      {"measurement": "Maximum % activity (with co-corrector)", "setting": "[1]", "result": "+++ (≥350)"},
      {"measurement": "EC50", "setting": "[5]", "result": "< 3", "unit": "µM"},
      {"measurement": "Emax", "setting": "[2]", "result": "> 150", "unit": "%"},
      {"measurement": "EC50", "setting": "[6]", "result": "< 3", "unit": "µM"}
    ]},
    {"smiles": "CCOc1ccc(C)cc1C1(C(=O)NS(=O)(=O)c2cccc3[nH]ncc23)CC1", "note": "[II-74]", "values": [
      {"measurement": "EC50", "setting": "[3]", "result": "< 3", "unit": "µM"},
      {"measurement": "Maximum % activity (with co-corrector)", "setting": "with co-corrector", "result": "+++ (≥350)"},
      {"measurement": "EC50", "setting": "[4]", "result": "< 3", "unit": "µM"},
      {"measurement": "Emax", "setting": "without co-corrector", "result": "> 150", "unit": "%"}
    ]},
    {"smiles": "CC(C)Oc1cnc(Cl)c(C2(C(=O)NS(=O)(=O)c3cccc4ncccc34)CC2)c1", "note": "[GIII-13]", "values": [
      {"measurement": "EC50 (with co-corrector)", "setting": "[1]", "result": "++^a"},
      {"measurement": "Maximum % activity (with co-corrector)", "setting": "[1]", "result": "++ (≥150 and <350)"},
      {"measurement": "Emax", "setting": "[2]", "result": "< 50", "unit": "%"},
      {"measurement": "EC50", "setting": "[6]", "result": "> 10", "unit": "µM"}
    ]}
  ]
}
